Literature values, collected in patent US6676928B2, “Perfluoroalkyl-containing complexes with polar radicals, process for their production and their use” (Schering Aktiengesellschaft, priority 2000, dated 2004).
Several values for one entry are separate records, joined by “and”; a condition that tells them apart may be missing. Identical values can stand only once.

Key:
[1] = in vivo; cited from earlier work
[2] = 39° C., 0.47 T; cited from earlier work
[3] = 39° C., 0.47 T; cited from earlier work; remark: listed apart in the source
[4] = system: infarcted tissue (kidney, myocardium); settings: two cases: infarction-kidney and myocardium; cited from earlier work

In the case of `O=S(=O)([O-])c1ccc(-c2c3nc(c(-c4ccc(S(=O)(=O)[O-])cc4)c4ccc([nH]4)c(-c4ccc(S(=O)(=O)[O-])cc4)c4nc(c(-c5ccc(S(=O)(=O)[O-])cc5)c5ccc2[nH]5)C=C4)C=C3)cc1.[Mn+4]` [Mn-TPPS, manganese-5,10,15,20-tetrakis(4-sulfonatophenyl)-porphyrin], the LD50 [1] is given as “approximately 0.5 mmol/kg”.
For `CNC(=O)CN(CCN(CCN(CC(=O)[O-])CC(=O)NC)CC(=O)[O-])CC(=O)[O-].[Gd+3]` [OMNISCAN ®], the “T^1 - Relaxivity in Water” value [2] is listed as 3.8 mmol⁻¹ s⁻¹ and the “T^1 - Relaxivity in Plasma” value [3] is listed as 4.4 mmol⁻¹ s⁻¹.
For `CNC[C@H](O)[C@@H](O)[C@H](O)[C@H](O)CO.O=C([O-])CN1CCN(CC(=O)[O-])CCN(CC(=O)O)CCN(CC(=O)[O-])CC1.[Gd+3]` [DOTAREM ®], the “T^1 - Relaxivity in Water” value [2] is listed as 3.5 mmol⁻¹ s⁻¹ and the “T^1 - Relaxivity in Plasma” value [3] is listed as 4.3 mmol⁻¹ s⁻¹.
For gadolinium-mesoporphyrin [Gd-MP], the “ratio of the signal intensities in MRI, infarcted in comparison to healthy tissue” value [4] is given as 2.10 and 2.19.
